In the NIST ThermoML archive (doi:10.1021/je401057z):
Numbers after ± are expanded uncertainties. Each block holds one molecule with its values, some of them ahead of it.

Settings: Liquid

SMILES: Cc1ccccc1C [1,2-dimethylbenzene]
vapor or sublimation pressure (456.1 K): 250 ± 10 kPa

SMILES: Cc1ccc(C)cc1 [1,4-dimethylbenzene]
vapor or sublimation pressure (410.78 K, Ebulliometric method (Recirculating still)): 100.04 ± 3.2 kPa
vapor or sublimation pressure (412.63 K, Ebulliometric method (Recirculating still)): 105 ± 3.4 kPa
vapor or sublimation pressure (419.48 K, Ebulliometric method (Recirculating still)): 124.93 ± 4 kPa
vapor or sublimation pressure (433.57 K, Ebulliometric method (Recirculating still)): 174.88 ± 5.6 kPa
vapor or sublimation pressure (439.37 K, Ebulliometric method (Recirculating still)): 199.86 ± 6.4 kPa
vapor or sublimation pressure (444.66 K, Ebulliometric method (Recirculating still)): 224.86 ± 7.2 kPa
vapor or sublimation pressure (449.56 K, Ebulliometric method (Recirculating still)): 250.04 ± 8 kPa
vapor or sublimation pressure (449.6 K, Ebulliometric method (Recirculating still)): 250 ± 8 kPa

vapor or sublimation pressure (447.2 K): 250 ± 10 kPa
SMILES: CCc1ccccc1 [ethylbenzene]

SMILES: Cc1cccc(C)c1 [1,3-dimethylbenzene]
vapor or sublimation pressure (450.1 K): 250 ± 10 kPa

vapor or sublimation pressure (371.55 K): 100.05 ± 3.5 kPa
vapor or sublimation pressure (373.4 K): 104.94 ± 3.7 kPa
vapor or sublimation pressure (379.8 K): 124.9 ± 4.3 kPa
vapor or sublimation pressure (386.94 K): 149.96 ± 5.1 kPa
vapor or sublimation pressure (393.14 K): 174.7 ± 6 kPa
vapor or sublimation pressure (398.64 K): 199.94 ± 6.8 kPa
vapor or sublimation pressure (403.68 K): 224.91 ± 7.6 kPa
vapor or sublimation pressure (408.28 K): 249.95 ± 8.4 kPa
vapor or sublimation pressure (408.3 K): 250 ± 8 kPa
SMILES: CC(C)CC(C)(C)C [2,2,4-trimethylpentane]
